# Like-named read-outs stand apart in the source and are kept apart here.
# Experiments:
# [1] = molecular target: full-length human SYK (Homo sapiens (Human), UniProt P43405); assay: Inhibition of enzymatic SYK kinase activity (LANCE Ulight TK peptide); type: biochemical
# Experimental: Compounds of the present invention were assayed to measure their capacity to inhibit a spleen tyrosine kinase (SYK).
# Compounds of the invention were initially diluted to 10 mM in 100% DMSO (CALBIOCHEM™) for storage and made into kinase buffer solution to create a compound concentration ranging from 1 uM and 10 uM. Serial dilutions of compounds of the invention were dispensed into a 96-well plate (GREINER BIOSCIENCES™) at 6 μL each. Purified full-length human SYK (CARNA BIOSCIENCES™) were diluted in kinase buffer and added to the compound solutions and pre-incubated for 30 minutes at room temperature. […] The reaction mixture was incubated for 1 hour. Following the incubation, the stop solution made with EDTA, water, and Lance detection buffer ([…]™) was added (12 μL each) to stop phosphorylation.
# [2] = tested on: THP-1 cells; assay: SYK-dependent TNF-α release assay (IgG stimulation), ELISA; type: cell-based; conditions: THP-1 cells on human IgG-coated plate, 18 hours; read-out: TNF-α release inhibition, IgG stimulation IC50
# Experimental: In order to address cellular potency of Compounds of Formula (I), TNF-a production was measured on treatment of a series of concentration of SYK inhibitor in THP-1 cells.
# For SYK-dependent TNF-α release assay (i.e., via IgG stimulation), THP-1 cells derived from human monocytic cells were obtained from the American Type Culture Collection (ATCC, Manassas, Va.). This cell line was maintained with a Roswell Park Memorial Institute (RPMI) medium (GIBCO) containing 10% fetal bovine serum (FBS; GIBCO) and 0.05 mM solution of 2-mercaptoethanol. The THP-1 cells were seeded at 1×10^5 cells/100 μL/well into human IgG (10 ng/well, INVITROGEN)-coated 96 well culture plate, and serially diluted compound was then added. After an 18 hours of incubation period at 37° C., supernatants were collected for the determination of the TNF-α level by enzyme-linked immunosorbent assay (ELISA), and the remaining cells were subjected to an MTT (yellow tetrazolium salt) assay to determine the cytotoxic effects of the compound. The IC50 value of the test compound was calculated at Gradpad Prism 5 unless otherwise specified.
# [3] = tested on: Collagen-induced arthritis in DBA/1J mice; assay: Collagen-induced arthritis (CIA) mouse model, macroscopic paw scoring; type: in vivo; conditions: 30 mg/kg/day once daily oral gavage, vehicle = 100.0
# Experimental: CIA mouse model was induced in DBA/1J mice (Japan Charles River Breeding Laboratories, Kanagawa, Japan) with 5 to 6 weeks of age. Animals were maintained at a temperature of 20±5° C. and a relative humidity of 40˜60%.
# Bovine type II collagen (CII, 2 mg/ml dissolved in 0.05 M acetic acid, Chondrex, Redmond, Wash.) was emulsified in equal volumes of Freund's complete adjuvant (4 mg/ml of Mycobacterium tuberculosis strain H37Ra; Chondrex, Redmond, Wash.). On day 0, mice were immunized intradermally at the base of the tail with 100 μg bovine type II collagen emulsified in Freund's complete adjuvant. On day 21, all mice were boosted with an intraperitoneal injection of 100 μg type II collagen.
# These compounds were dissolved in NMP/20% cyclodextrin/PEG400 5:45:50 solution and filtered by […] membrane filter. All the test substances were administered once daily at 30 mg/kg/day by oral gavage for 3 weeks.
# The gradual onset of arthritis usually starts approximately 3 weeks after initial immunization. The progression of CIA was evaluated by the macroscopic scoring of paws at intervals of 3 days. The edema and swelling of each paw was scored visually as was described previously, using a scale of 0-4, where 0=no visible abnormalities, 1=mild redness or swelling of the wrist or up to three inflamed digits, 2=more than three inflamed digits or moderate redness and swelling of the ankle or wrist, 3=severe ankle and wrist inflammation, 4=extensive ankle and wrist inflammation including all digits. Therefore, the score of each mouse was calculated for the four limbs (maximum total score of 16 for each mouse) (Courtenay J S, Dallman M J, Dayan A D, et al., Immunisation against heterologous type II collagen induces arthritis in mice, Nature, 1980, 283, 666-668)
# Arthritis was considered to be present if the score was >2. The blind scoring was performed by four independent observers. In this study, data was calculated by following equation. […] Results
# [4] = tested on: Human peripheral CD19+ B cells; assay: Cellular SLE model: immunoglobulin production in human peripheral B cells stimulated via TLR9 (ODN2006); type: cell-based; conditions: human B cell, ODN2006 and IL-2, 6 days
# From the text: Systemic lupus erythematosus (SLE) is a chronic inflammatory autoimmune disease and can affect several organs and systems. It is characterized by high production of autoantibodies against nuclear compounds. TLR7/8/9 are responsible for nucleic acid recognition and they trigger proinflammatory responses through activation of […] and Type I IFN production, making a bridge between the innate and the adaptive immune systems. TLR9 signaling pathway was adopted for cellular SLE model using human peripheral B cells to test potency of SYK inhibitor of Formula (I).
# Human peripheral CD19+ B cells from an adult healthy donor were purchased from Sanguine Biosciences (Sherman Oaks, Calif.). B cells were cultured in 96-well plates with complete RPMI 1640 medium (Corning, Tewksbury, Mass.) supplemented with 10% heat-inactivated FBS (Life Technologies, Grand Island, N.Y.) and penicillin/streptomycin (Corning). B cells were stimulated with 1 μM ODN2006 (InvivoGen, San Diego, Calif.) and 20 ng/ml IFNα (PBL Assay Science, Piscataway, N.J.) for 3 days for toll-like receptor-9 (TLR-9)-mediated B cell growth. To differentiate naïve B cells into plasma cells, peripheral B cells were differentiated with 50 nM ODN2006 and 10 ng/ml IL-2 in a presence of various concentrations of SYK inhibitors for 6 days. Culture supernatants were collected and IgM and IgG production was measured using human IgM or IgG ELISA kit (BioLegend).
# [5] = tested on: OCI-LY1; assay: DLBCL cell proliferation, ATPLite assay; type: cell-based, human; conditions: OCI-LY1, 72 hours; read-out: Inhibition of proliferation IC50
# From the text: (§1) Several lines of evidence support the role of B cell receptor (BCR)-mediated survival signals in certain B cell malignancies such as non-Hodgkin lymphomas (NHL) including diffuse large B cell lymphoma (DLBCL). B cell receptor (BCR) signaling pathway components represent promising treatment targets in diffuse large B cell lymphoma (DLBCL) and additional B cell tumors. In order to address whether SYK inhibitor of Compounds of Formula (I), cellular viability of diffuse large B cell lymphoma (DLBCL) cells was measured on treatment of a series of concentration of SYK inhibitor.
# (§2) The DLBCL cells, SUDHL4, SUDHL6 and OCI-LY1 […] were obtained from the American Type Culture Collection (ATCC, Manassas, Va., USA) or DSMZ (Braunschweig, Germany). […] The SUDHL4, SUDHL6 and OCI-LY1 cells were seeded at 1×10^5 cells/100 μL/well into 96 well culture plate, and serially diluted compound was then added. After an 72 hours of incubation period at 37° C., cells were subjected to an ATPLite assay (PerkinElmer) to determine the cytotoxic effects of the compound. The IC50 value of the test compound was calculated at Gradpad Prism 5 unless otherwise specified.
# [6] = tested on: SUDHL4; assay: DLBCL cell proliferation, ATPLite assay; type: cell-based, human; conditions: SUDHL4, 72 hours; read-out: Inhibition of proliferation IC50
# From the text: as §1, §2
# [7] = tested on: SUDHL6; assay: DLBCL cell proliferation, ATPLite assay; type: cell-based, human; conditions: SUDHL6, 72 hours; read-out: Inhibition of proliferation IC50
# From the text: as §1, §2
# [8] = ATP at Km (15 uM), 30 min pre-incubation
compound,measurement,setting,value
"CCn1cc(C(=O)C2CC2)c2cc(Nc3nccc(-n4cc(CN5C[C@H](O)CO5)c(C)n4)n3)ccc21 [Compound 6, (S)-cyclopropyl(1-ethyl-5-(4-(4-((4-hydroxyisoxazolidin-2-yl)methyl)-3-methyl-1H-pyrazol-1-yl)pyrimidin-2-ylamino)-1H-indol-3-yl)methanone]",IC50,[1]; [8],4.69 nM
same,IC50,[2],57 nM
same,CIA index (arthritic score of test group / vehicle group x 100),[3]; day 4,0.0 ± 0.0%
same,CIA index (arthritic score of test group / vehicle group x 100),[3]; day 7,10.9 ± 8.9%
same,CIA index (arthritic score of test group / vehicle group x 100),[3]; day 10,32.3 ± 11.5%
same,CIA index (arthritic score of test group / vehicle group x 100),[3]; day 13,45.3 ± 10.5%
same,CIA index (arthritic score of test group / vehicle group x 100),[3]; day 17,53.3 ± 7.4%
same,CIA index (arthritic score of test group / vehicle group x 100),[3]; day 19,63.4 ± 4.0%
"Cc1nn(-c2ccnc(Nc3ccc4c(c3)c(S(C)(=O)=O)nn4C)n2)cc1CN1C[C@H](O)CO1 [Compound 26, (S)-2-((3-methyl-1-(2-(1-methyl-3-(methylsulfonyl)-1H-indazol-5-ylamino)pyrimidin-4-yl)-1H-pyrazol-4-yl)methyl)isoxazolidin-4-ol]",IC50,[1]; [8],87.1 nM
same,IC50,[2],1060 nM
"Cc1nn(-c2ccnc(Nc3ccc4c(c3)c(C(=O)C3CC3)cn4S(C)(=O)=O)n2)cc1CN1C[C@H](O)CO1 [Compound 27, (S)-cyclopropyl(5-(4-(4-((4-hydroxyisoxazolidin-2-yl)methyl)-3-methyl-1H-pyrazol-1-yl)pyrimidin-2-ylamino)-1-(methylsulfonyl)-1H-indol-3-yl)methanone]",IC50,[1]; [8],5.89 nM
same,IC50,[2],43 nM
"CCn1cc(C(=O)C2CC2)c2cc(Nc3nccc(-n4cc(C)c(CN5C[C@H](O)CO5)c4)n3)ccc21 [Compound 29, (S)-cyclopropyl(1-ethyl-5-(4-(3-((4-hydroxyisoxazolidin-2-yl)methyl)-4-methyl-1H-pyrrol-1-yl)pyrimidin-2-ylamino)-1H-indol-3-yl)methanone]",IC50,[1],69.5 nM
same,IC50,[2],70 nM
"O=C(c1cn(CCF)c2ccc(Nc3nccc(-n4cc(CN5C[C@H](O)CO5)cn4)n3)cc12)C1CC1 [Compound 32, (S)-cyclopropyl(1-(2-fluoroethyl)-5-(4-(4-((4-hydroxyisoxazolidin-2-yl)methyl)-1H-pyrazol-1-yl)pyrimidin-2-ylamino)-1H-indol-3-yl)methanone]",IC50,[1]; [8],3.52 nM
same,IC50,[2],53 nM
"O=C(c1cn(CC(F)F)c2ccc(Nc3nccc(-n4cc(CN5C[C@H](O)CO5)cn4)n3)cc12)C1CC1 [Compound 33, (S)-cyclopropyl(1-(2,2-difluoroethyl)-5-(4-(4-((4-hydroxyisoxazolidin-2-yl)methyl)-1H-pyrazol-1-yl)pyrimidin-2-ylamino)-1H-indol-3-yl)methanone]",IC50,[1]; [8],5.34 nM
same,IC50,[2],60 nM
"O=C(c1cn(CC(F)(F)F)c2ccc(Nc3nccc(-n4cc(CN5C[C@H](O)CO5)cn4)n3)cc12)C1CC1 [Compound 34, (S)-cyclopropyl(5-(4-(4-((4-hydroxyisoxazolidin-2-yl)methyl)-1H-pyrazol-1-yl)pyrimidin-2-ylamino)-1-(2,2,2-trifluoroethyl)-1H-indol-3-yl)methanone]",IC50,[1]; [8],5.8 nM
same,IC50,[2],55 nM
"COc1cc(Nc2ncc(F)c(Nc3ccc4c(n3)NC(=O)C(C)(C)O4)n2)cc(OC)c1OC [Compound R406, reference compound]",IC50,[2],217 nM
same,IC50,"[4]; read-out: Inhibition of immunoglobulin production, IgG IC50",369 nM
same,IC50,"[4]; read-out: Inhibition of immunoglobulin production, IgM IC50",180 nM
same,IC50,[5],3.89 µM
same,IC50,[6],3.67 µM
same,IC50,[7],3.23 µM
"COc1cc(Nc2ncc(F)c(Nc3ccc4c(n3)N(COP(=O)(O)O)C(=O)C(C)(C)O4)n2)cc(OC)c1OC [Compound R788, reference compound]",CIA index (arthritic score of test group / vehicle group x 100),[3]; day 4,36.7 ± 22.7%
same,CIA index (arthritic score of test group / vehicle group x 100),[3]; day 7,82.2 ± 45.2%
same,CIA index (arthritic score of test group / vehicle group x 100),[3]; day 10,80.3 ± 27.3%
same,CIA index (arthritic score of test group / vehicle group x 100),[3]; day 13,97.8 ± 25.0%
same,CIA index (arthritic score of test group / vehicle group x 100),[3]; day 17,73.3 ± 11.2%
same,CIA index (arthritic score of test group / vehicle group x 100),[3]; day 19,72.1 ± 11.2%
cyclopropyl(1-(2-fluoroethyl)-5-(4-(4-(((S)-4-hydroxyisoxazolidin-2-yl)methyl)-3-methyl-1H-pyrazol-1-yl)pyrimidin-2-ylamino)indolin-3-yl)methanone [Compound 24],IC50,[1]; [8],3.1 nM
same,IC50,[2],47 nM
